Here are results for 27 molecules from patent US7851473B2, “Amide compound” (Takeda Pharmaceutical Company Limited, priority 2004, dated 2010).

Structures are written as SMILES. Where a name gives a salt, the structure may show the parent alone.

This assay deals with T1, human FAAH (Homo sapiens, UniProt O00519).
T1 construct: made in house; 10000 g pellet suspended in M-PER
T1 sequence (O00519 1-579): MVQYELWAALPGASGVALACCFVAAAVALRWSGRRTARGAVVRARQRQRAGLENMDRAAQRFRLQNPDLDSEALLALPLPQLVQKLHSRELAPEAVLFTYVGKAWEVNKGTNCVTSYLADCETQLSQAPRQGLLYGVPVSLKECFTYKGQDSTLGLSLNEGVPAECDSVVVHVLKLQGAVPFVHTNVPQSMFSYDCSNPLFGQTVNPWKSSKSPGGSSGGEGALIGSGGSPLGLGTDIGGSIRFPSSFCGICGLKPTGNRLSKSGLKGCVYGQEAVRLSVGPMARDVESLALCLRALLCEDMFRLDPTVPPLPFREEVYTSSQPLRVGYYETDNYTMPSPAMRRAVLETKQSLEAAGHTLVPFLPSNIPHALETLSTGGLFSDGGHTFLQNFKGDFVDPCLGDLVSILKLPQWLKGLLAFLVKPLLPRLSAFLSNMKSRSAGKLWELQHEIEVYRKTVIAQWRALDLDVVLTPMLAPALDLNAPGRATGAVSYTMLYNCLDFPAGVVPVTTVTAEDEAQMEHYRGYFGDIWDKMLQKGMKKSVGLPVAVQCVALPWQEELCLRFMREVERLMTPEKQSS
Briefly: Measurement of FAAH inhibitory activity (anandamide [ethanolamine 1-3H] hydrolysis, filter plate). The assay is classed as biochemical. As to conditions: test compound 1 μM; CHO-K1/human FAAH enzyme fraction; anandamide 25 nM; 37° C., 30 minutes; read-out: Human FAAH Inhibition Rate at 1 μM (%). The protocol:
(1) Preparation of Enzyme Fraction
The FAAH gene was cloned by PCR. That is, a human brain library was used as a cDNA library, 5′-[…]-3′ [SEQ ID NO:1] and 5′-[…]-3′ [SEQ ID NO:2] were used as a primer set, and KOD DNA polymerase (Toyobo Co., Ltd.) was used as a DNA polymerase. One cycle of the reaction comprises 95° C. for 30 sec, 55° C. for 30 sec and 72° C. for 2 min, and 45 cycles of the reaction was carried out to obtain an amplified fragment. The amplified fragment was cleaved with restriction enzymes EcoRI and SalI, and then was inserted into a pMSRα vector which had been cleaved with the same restriction enzymes EcoRI and SalI to obtain a pMSRα-human FAAH. A cell line CHO-K1 and the above-obtained plasmid were subjected to a method known per se to prepare the cell line CHO-K1/human FAAH in which human FAAH was stably expressed. The CHO-K1/human FAAH was cultured in a CO2 incubator at 37° C., using a medium (Ham's F-12 medium supplemented with final concentration 10% of fetal bovine serum (FBS) and final concentration 800 μg/ml of G418), and then the cells were harvested. After washing with PBS, the cells were suspended in a buffer (10 mM Tris, 1 mM EDTA and 10 mM MgCl2, all at final concentrations) and disrupted with a Polytron homogenizer. After centrifugation at 900 g, the supernatant was recovered and further centrifuged at 10000 g. A pellet obtained therefrom was suspended in M-PER (Catalog No. 78501; PIERCE) to give an enzyme fraction.
Using a white walled 96-well plate (Coster Corp.), the test compound at various concentrations, 60 ng of the enzyme fraction and the substrate anandamide [ethanolamine 1-^3H] (final concentration 25 nM) were reacted in 50 μl of a reaction buffer (125 mM Tris-HCl (pH 9.0), 1 mM EDTA, 0.4 mM HEPES, 0.2% glycerol and 0.02% Triton X-100, all at final concentrations) at 37° C. for 30 minutes. The reaction mixture was transferred to a 96-well MultiScreen-HA filter plate (Millipore Corp.) and then was left to stand overnight at room temperature in order to allow the unreacted substrate to be adsorbed on the filter. The plate was washed with PBS using a MultiScreen Vacuum Manifold (Millipore Corp.) and dried. To each well, 50 μl of liquid scintillation cocktail was added and stirred, and then counting was performed with a TopCount (Perkin-Elmer Corp.). The count of a sample containing a solvent instead of the test compound was taken as 0%, and the count at zero time was taken as 100%, to calculate the inhibitory activity of the compound.
As for `O=C(Nc1noc2ccccc12)N1CCN(c2nc(-c3ccccc3)ns2)CC1` [Example 1, N-1,2-Benzisoxazol-3-yl-4-(3-phenyl-1,2,4-thiadiazol-5-yl)piperazine-1-carboxamide], the inhibition at 1 µM is 100%.

Turning to `CC(C)c1nsc(N2CCN(C(=O)Nc3noc4ccccc34)CC2)n1` [Example 9, N-1,2-Benzisoxazol-3-yl-4-(3-isopropyl-1,2,4-thiadiazol-5-yl)piperazine-1-carboxamide], the inhibition at 1 µM stood at 98%.

As to `O=C(Nc1noc2ccccc12)N1CCN(c2nc(-c3ccccn3)ns2)CC1` [Example 15, N-1,2-Benzisoxazol-3-yl-4-(3-pyridin-2-yl-1,2,4-thiadiazol-5-yl)piperazine-1-carboxamide], the inhibition at 1 µM was 102%.

For `O=C(Nc1noc2ccccc12)N1CCN(c2nc(N3CCCCC3)ns2)CC1` [Example 17, N-1,2-Benzisoxazol-3-yl-4-(3-piperidin-1-yl-1,2,4-thiadiazol-5-yl)piperazine-1-carboxamide], the inhibition at 1 µM was found to be 95%.

Take `O=C(Nc1noc2ccccc12)N1CCN(c2nc(-c3ccccc3)no2)CC1` [Example 22, N-1,2-Benzisoxazol-3-yl-4-(3-phenyl-1,2,4-oxadiazol-5-yl)piperazine-1-carboxamide]: the inhibition at 1 µM was determined as 94%.

As for `O=C(Nc1noc2ccccc12)N1CCN(c2nc(-c3ccccc3)co2)CC1` [Example 23, N-1,2-Benzisoxazol-3-yl-4-(4-phenyl-1,3-oxazol-2-yl)piperazine-1-carboxamide], the inhibition at 1 µM was determined as 100%.

Consider `O=C(Nc1ccc2[nH]nnc2c1)N1CCN(c2nc(-c3ccccc3)ns2)CC1` [Example 71, N-1H-1,2,3-Benzotriazol-5-yl-4-(3-phenyl-1,2,4-thiadiazol-5-yl)piperazine-1-carboxamide], for which the inhibition at 1 µM is 108%.

Regarding `O=C(Nc1cccnc1)N1CCN(c2nc(-c3ccccc3)ns2)CC1` [Example 85, 4-(3-Phenyl-1,2,4-thiadiazol-5-yl)-N-pyridin-3-ylpiperazine-1-carboxamide hydrochloride], the inhibition at 1 µM was determined as 100%.

On to `O=C(Nc1cccnc1)N1CCN(c2nc(-c3ccccc3)cs2)CC1` [Example 94, 4-(4-Phenyl-1,3-thiazol-2-yl)-N-pyridin-3-ylpiperazine-1-carboxamide], for which the inhibition at 1 µM came out at 100%.

As to `O=C(Nc1noc2ccccc12)N1CCN(C(=O)OCc2ccccc2)CC1` [Example 95, Benzyl 4-[(1,2-benzisoxazol-3-ylamino)carbonyl]piperazine-1-carboxylate], the inhibition at 1 µM is 100%.

Turning to `O=C(Nc1cccnn1)N1CCN(c2nc(-c3ccccc3)ns2)CC1` [Example 147, 4-(3-Phenyl-1,2,4-thiadiazol-5-yl)-N-pyridazin-3-ylpiperazine-1-carboxamide], the inhibition at 1 µM was 101%.

`O=C(Nc1cnccn1)N1CCN(c2nc(-c3ccccc3)cs2)CC1` [Example 166, 4-(4-Phenyl-1,3-thiazol-2-yl)-N-pyrazin-2-ylpiperazine-1-carboxamide]: the inhibition at 1 µM stood at 106%.

Take `Cc1noc(NC(=O)N2CCC(c3nc(-c4ccccc4)cs3)CC2)c1C` [Example 190, N-(3,4-Dimethylisoxazol-5-yl)-4-(4-phenyl-1,3-thiazol-2-yl)piperidine-1-carboxamide]: the inhibition at 1 µM stood at 103%.

As for `CCc1sc(N2CCN(C(=O)Nc3ccc(NC(C)=O)nc3)CC2)nc1-c1ccccc1` [Example 226, N-[6-(Acetylamino)pyridin-3-yl]-4-(5-ethyl-4-phenyl-1,3-thiazol-2-yl)piperazine-1-carboxamide], the inhibition at 1 µM was determined as 104%.

As for `O=C(Nc1cccnn1)N1CCN(c2nc(-c3cccc(F)c3)cs2)CC1` [Example 228, 4-[4-(3-Fluorophenyl)-1,3-thiazol-2-yl]-N-pyridazin-3-ylpiperazine-1-carboxamide], the inhibition at 1 µM was found to be 106%.

On to `O=C(Nc1cnccn1)N1CCN(c2nc(-c3cccc(F)c3)cs2)CC1` [Example 229, 4-[4-(3-Fluorophenyl)-1,3-thiazol-2-yl]-N-pyrazin-2-ylpiperazine-1-carboxamide], for which the inhibition at 1 µM amounted to 105%.

Consider `Cc1noc(NC(=O)N2CCC(c3nc(-c4ccc(F)cc4)cs3)CC2)c1C` [Example 236, N-(3,4-Dimethylisoxazol-5-yl)-4-[4-(4-fluorophenyl)-1,3-thiazol-2-yl]piperidine-1-carboxamide], for which the inhibition at 1 µM was 106%.

On to `Cc1noc(NC(=O)N2CCN(c3nc(-c4ccc(F)cc4F)cs3)CC2)c1C` [Example 260, 4-[4-(2,4-Difluorophenyl)-1,3-thiazol-2-yl]-N-(3,4-dimethylisoxazol-5-yl)piperazine-1-carboxamide], for which the inhibition at 1 µM was 102%.

As to `O=C(Nc1cccnc1)N1CCN(c2nc(-c3cccc(F)c3F)cs2)CC1` [Example 262, 4-[4-(2,3-Difluorophenyl)-1,3-thiazol-2-yl]-N-pyridin-3-ylpiperazine-1-carboxamide], the inhibition at 1 µM is 106%.

Turning to `O=C(Nc1cccnn1)N1CCN(c2nc(-c3cccc(F)c3F)cs2)CC1` [Example 272, 4-[4-(2,3-Difluorophenyl)-1,3-thiazol-2-yl]-N-pyridazin-3-ylpiperazine-1-carboxamide], the inhibition at 1 µM stood at 102%.

Turning to `Cc1cccc(-c2csc(N3CCN(C(=O)Nc4cccnc4)CC3)n2)c1` [Example 275, 4-[4-(3-Methylphenyl)-1,3-thiazol-2-yl]-N-pyridin-3-ylpiperazine-1-carboxamide], the inhibition at 1 µM worked out at 94%.

With `Cc1noc(NC(=O)N2CCN(c3nc(-c4cccc(Cl)c4)cs3)CC2)c1C` [Example 276, 4-[4-(3-Chlorophenyl)-1,3-thiazol-2-yl]-N-(3,4-dimethylisoxazol-5-yl)piperazine-1-carboxamide], the inhibition at 1 µM is 104%.

In the case of `COc1cccc(-c2csc(N3CCN(C(=O)Nc4onc(C)c4C)CC3)n2)c1` [Example 277, N-(3,4-Dimethylisoxazol-5-yl)-4-[4-(3-methoxyphenyl)-1,3-thiazol-2-yl]piperazine-1-carboxamide], the inhibition at 1 µM amounted to 100%.

Turning to `Cc1noc(NC(=O)N2CCN(c3nc(-c4cccc(C(F)(F)F)c4)cs3)CC2)c1C` [Example 278, N-(3,4-Dimethylisoxazol-5-yl)-4-{4-[3-(trifluoromethyl)phenyl]-1,3-thiazol-2-yl}piperazine-1-carboxamide], the inhibition at 1 µM is 104%.

Take `Cc1cccc(-c2csc(N3CCN(C(=O)Nc4onc(C)c4C)CC3)n2)c1` [Example 280, N-(3,4-Dimethylisoxazol-5-yl)-4-[4-(3-methylphenyl)-1,3-thiazol-2-yl]piperazine-1-carboxamide]: the inhibition at 1 µM came out at 86%.

Consider `O=C(Nc1cccnc1)N1CCN(c2nc(-c3cccc(Cl)c3Cl)cs2)CC1` [Example 283, 4-[4-(2,3-Dichlorophenyl)-1,3-thiazol-2-yl]-N-pyridin-3-ylpiperazine-1-carboxamide], for which the inhibition at 1 µM was determined as 102%.

Consider `Cc1noc(NC(=O)N2CCN(c3nc(-c4cccc(Cl)c4Cl)cs3)CC2)c1C` [Example 284, 4-[4-(2,3-Dichlorophenyl)-1,3-thiazol-2-yl]-N-(3,4-dimethylisoxazol-5-yl)piperazine-1-carboxamide], for which the inhibition at 1 µM came to 128%.

By inhibition is commonly meant the relative decrease from the control value, in per cent.
